According to patent publication US20160002247A1, “8-SUBSTITUTED IMIDAZOPYRIMIDINONE DERIVATIVE HAVING AUTOTAXIN INHIBITORY ACTIVITY” (THE UNIVERSITY OF TOKYO, priority 2013, published 2016):

Biological target: T1, Human autotaxin enzyme (Homo sapiens, UniProt Q13822)
T1 construct: purchased R&D System
Test: Evaluation of autotaxin inhibitor, Method C (Test Example 3): 18:0 Lyso PC, choline assay, Resorufin fluorescence
Format: biochemical
Conditions: Assay Method C (Test Example 3), human autotaxin, 18:0 Lyso PC substrate; read-out: Inhibitory Activity (autotaxin enzyme inhibitory activity, IC50 class)
Description: (Method C) Evaluation of Autotaxin Inhibitor
Solution B containing 100 mM Tris-HCl buffer (pH7.5), 150 mM NaCl, 5 mM MgCl2 and 0.05% Triton X-100 was prepared. Human autotaxin enzyme (purchased from R&D System) was diluted with Solution B, and 2.5 μL of which was added to a solution of test compound in DMSO. Furthermore, 2.5 μl of 200 μM 18:0 Lyso PC (purchased from Avanti Polar Lipids) in Solution B was added and allowed to react at room temperature for 2 hours. After completion of the reaction, 15 μL of the coline assay reagent (100 mM Tris-HCl buffer (pH7.5), 5 mM MgCl2, 77 μg/mL choline oxidase, 10 μg/mL peroxidase, 25 μM 10-acetyl-3,7-dihydroxyphenoxazine and excess autotaxin inhibitor) was added and allowed to react at room temperature for 20 minutes. The fluorescent dye Resorufin, which was produced by the reaction, was detected. The fluorescence was detected using ViewLux (PerkinElmer, Inc.) with an excitation wavelength of 531 nm and a fluorescence wavelength of 598 nm.
The percent inhibition of the test compound was calculated by assuming the sample with no test compound as 0% inhibition and the sample with no enzyme as 100% inhibition, and the percent inhibitions at different concentrations of the test compound were plotted to obtain a concentration-dependent curve.

IC50 [µM] | Structure (SMILES)
0.1 to 1 | CCCCCn1c(-c2cccc(NS(C)(=O)=O)c2)cc(=O)n2cc(-c3ccc(Cl)cc3)nc12 [Compound 441]
> 1 | CCCCCn1c(-c2ccc(CCCC)cc2)cc(=O)n2cc(-c3ccc(Cl)cc3)nc12 [Compound 442]
0.1 to 1 | CCCCCn1c(-c2ccccc2F)cc(=O)n2cc(-c3ccc(Cl)cc3)nc12 [Compound 443]
0.1 to 1 | CCCCCn1c(-c2cccc(F)c2)cc(=O)n2cc(-c3ccc(Cl)cc3)nc12 [Compound 444]
0.1 to 1 | CCCCCn1c(-c2cccc(N3CCOCC3)c2)cc(=O)n2cc(-c3ccc(Cl)cc3)nc12 [Compound 445]
0.1 to 1 | CCCCCn1c(-c2ccc(CCCO)cc2)cc(=O)n2cc(-c3ccc(Cl)cc3)nc12 [Compound 446]
0.01 to 0.1 | CCCCCn1c(-c2cccc(C(C)=O)c2)cc(=O)n2cc(-c3ccc(Cl)cc3)nc12 [Compound 447]
0.01 to 0.1 | CCCCCn1c(-c2ccc3[nH]c(=O)[nH]c3c2)cc(=O)n2cc(-c3ccc(Cl)cc3)nc12 [Compound 448]
0.01 to 0.1 | CCCCCn1c(-c2ccc(N3C[C@@H](CNC(C)=O)OC3=O)cc2F)cc(=O)n2cc(-c3ccc(Cl)cc3)nc12 [Compound 449]
0.01 to 0.1 | CCCCCn1c(-c2ccc3ncsc3c2)cc(=O)n2cc(-c3ccc(Cl)cc3)nc12 [Compound 450]
0.01 to 0.1 | CCCCCn1c(-c2ccc(OCCO)c(S(N)(=O)=O)c2)cc(=O)n2cc(-c3ccc(Cl)cc3)nc12 [Compound 451]
0.01 to 0.1 | CCCCCn1c(-c2cccc(S(=O)(=O)N3CCOCC3)c2)cc(=O)n2cc(-c3ccc(Cl)cc3)nc12 [Compound 452]
0.1 to 1 | CCCCCn1c(-c2ccc(C(=O)OCC)cc2)cc(=O)n2cc(-c3ccc(Cl)cc3)nc12 [Compound 453]
0.01 to 0.1 | CCCCCn1c(-c2cnc(OC)nc2OC)cc(=O)n2cc(-c3ccc(Cl)cc3)nc12 [Compound 454]
0.1 to 1 | CCCCCn1c(-c2cnccc2OC)cc(=O)n2cc(-c3ccc(Cl)cc3)nc12 [Compound 455]
0.01 to 0.1 | CCCCCn1c(-c2ccc(OC)nc2)cc(=O)n2cc(-c3ccc(Cl)cc3)nc12 [Compound 456]
0.01 to 0.1 | CCCCCn1c(-c2ccc(F)nc2)cc(=O)n2cc(-c3ccc(Cl)cc3)nc12 [Compound 457]
0.1 to 1 | CCCCCn1c(-c2cnc(OC)c(Cl)c2)cc(=O)n2cc(-c3ccc(Cl)cc3)nc12 [Compound 458]
0.01 to 0.1 | CCCCCn1c(-c2cnc(N)nc2)cc(=O)n2cc(-c3ccc(Cl)cc3)nc12 [Compound 459]
0.1 to 1 | CCCCCn1c(-c2ccnc(OC)c2)cc(=O)n2cc(-c3ccc(Cl)cc3)nc12 [Compound 460]
0.01 to 0.1 | CCCCCn1c(-c2cncc(OC)c2)cc(=O)n2cc(-c3ccc(Cl)cc3)nc12 [Compound 461]
0.01 to 0.1 | CCCCCn1c(-c2ccc(C#N)nc2)cc(=O)n2cc(-c3ccc(Cl)cc3)nc12 [Compound 462]
0.01 to 0.1 | CCCCCn1c(-c2cnc(O)nc2)cc(=O)n2cc(-c3ccc(Cl)cc3)nc12 [Compound 463]
0.01 to 0.1 | CCCCCn1c(-c2ccc(C(=O)NCCC#N)cc2)cc(=O)n2cc(-c3ccc(Cl)cc3)nc12 [Compound 465]
0.01 to 0.1 | CCCCCn1c(-c2ccc(C(=O)Nc3ccncc3)cc2)cc(=O)n2cc(-c3ccc(Cl)cc3)nc12 [Compound 466]
0.01 to 0.1 | CCCCCn1c(-c2ccc(C(=O)N(CCO)CCO)cc2)cc(=O)n2cc(-c3ccc(Cl)cc3)nc12 [Compound 467]
0.1 to 1 | CCCCCn1c(-c2ccc(C(=O)NC(C)(C)C)cc2)cc(=O)n2cc(-c3ccc(Cl)cc3)nc12 [Compound 468]

IC50 [µM] | Structure (SMILES)
0.01 to 0.1 | CCCCCn1c(-c2ccc(C(=O)Nc3ccccc3)cc2)cc(=O)n2cc(-c3ccc(Cl)cc3)nc12 [Compound 469]
0.01 to 0.1 | CCCCCn1c(-c2ccc(C(=O)NCCNC(C)=O)cc2)cc(=O)n2cc(-c3ccc(Cl)cc3)nc12 [Compound 470]
0.1 to 1 | CCCCCn1c(-c2ccc(C(=O)Nc3ccc(OC)cc3)cc2)cc(=O)n2cc(-c3ccc(Cl)cc3)nc12 [Compound 471]
0.01 to 0.1 | CCCCCn1c(-c2ccc(C(=O)N3CCC(O)CC3)cc2)cc(=O)n2cc(-c3ccc(Cl)cc3)nc12 [Compound 472]
0.01 to 0.1 | CCCCCn1c(-c2ccc(C(=O)N3CCOCC3)cc2)cc(=O)n2cc(-c3ccc(Cl)cc3)nc12 [Compound 473]
0.01 to 0.1 | CCCCCn1c(-c2ccc(C(=O)N3CCN(C(C)=O)CC3)cc2)cc(=O)n2cc(-c3ccc(Cl)cc3)nc12 [Compound 474]
0.01 to 0.1 | CCCCCn1c(-c2ccc(C(=O)NCCF)cc2)cc(=O)n2cc(-c3ccc(Cl)cc3)nc12 [Compound 475]
0.01 to 0.1 | CCCCCn1c(-c2ccc(C(=O)N(C)CCO)cc2)cc(=O)n2cc(-c3ccc(Cl)cc3)nc12 [Compound 476]
0.01 to 0.1 | CCCCCn1c(-c2ccc(C(=O)NC(C)(C)CO)cc2)cc(=O)n2cc(-c3ccc(Cl)cc3)nc12 [Compound 477]
0.01 to 0.1 | CCCCCn1c(-c2ccc(C(=O)NCCC)cc2)cc(=O)n2cc(-c3ccc(Cl)cc3)nc12 [Compound 478]
0.01 to 0.1 | CCCCCn1c(-c2ccc(C(=O)NCCCOC)cc2)cc(=O)n2cc(-c3ccc(Cl)cc3)nc12 [Compound 479]
0.01 to 0.1 | CCCCCn1c(-c2ccc(C(=O)NCCOCCO)cc2)cc(=O)n2cc(-c3ccc(Cl)cc3)nc12 [Compound 480]
0.01 to 0.1 | CCCCCn1c(-c2ccc(C(=O)NCCCO)cc2)cc(=O)n2cc(-c3ccc(Cl)cc3)nc12 [Compound 481]
< 0.01 | CCCCCn1c(-c2ccc(C(=O)NC(CO)CO)cc2)cc(=O)n2cc(-c3ccc(Cl)cc3)nc12 [Compound 482]
0.01 to 0.1 | CCCCCn1c(-c2ccc(C(=O)NCC3CC3)cc2)cc(=O)n2cc(-c3ccc(Cl)cc3)nc12 [Compound 483]
0.01 to 0.1 | C#CCNC(=O)c1ccc(-c2cc(=O)n3cc(-c4ccc(Cl)cc4)nc3n2CCCCC)cc1 [Compound 484]
0.01 to 0.1 | CCCCCn1c(-c2ccc(C(=O)N3CCN(CCOC)CC3)cc2)cc(=O)n2cc(-c3ccc(Cl)cc3)nc12 [Compound 485]
< 0.01 | CCCCCn1c(-c2ccc(C(=O)NC[C@H](O)CO)cc2)cc(=O)n2cc(-c3ccc(Cl)cc3)nc12 [Compound 486]
< 0.01 | CCCCCn1c(-c2ccc(C(=O)NCC(O)CO)cc2)cc(=O)n2cc(-c3ccc(Cl)cc3)nc12 (centres unmarked) [Compound 487]
0.01 to 0.1 | CCCCCn1c(-c2ccc(C(=O)Nc3ncco3)cc2)cc(=O)n2cc(-c3ccc(Cl)cc3)nc12 [Compound 488]
0.01 to 0.1 | CCCCCn1c(-c2ccc(C(=O)NC3CN(C)C3)cc2)cc(=O)n2cc(-c3ccc(Cl)cc3)nc12 [Compound 489]
< 0.01 | CCCCCn1c(-c2ccc(C(=O)NC3COC3)cc2)cc(=O)n2cc(-c3ccc(Cl)cc3)nc12 [Compound 490]
0.1 to 1 | CCCCCn1c(-c2ccc(C(=O)N3CCC4(CN(C(=O)OC(C)(C)C)C4)C3)cc2)cc(=O)n2cc(-c3ccc(Cl)cc3)nc12 [Compound 491]
0.01 to 0.1 | CCCCCn1c(-c2ccc(C(=O)N3CCS(=O)(=O)CC3)cc2)cc(=O)n2cc(-c3ccc(Cl)cc3)nc12 [Compound 492]
0.01 to 0.1 | CCCCCn1c(-c2ccc(C(=O)NC3CCS(=O)(=O)CC3)cc2)cc(=O)n2cc(-c3ccc(Cl)cc3)nc12 [Compound 493]
0.01 to 0.1 | CCCCCn1c(-c2ccc(C(=O)NCCS(C)(=O)=O)cc2)cc(=O)n2cc(-c3ccc(Cl)cc3)nc12 [Compound 494]
